Measurements published in PMC7719179, “Small molecule inhibition of Dynamin-dependent endocytosis targets multiple niche signals and impairs leukemia stem cells” (Nature Communications, 2020).
Where “and” joins values, the source holds several entries; their conditions need not be identical. Identical values can stand only once.

Tested on: Ba/F3-IL7R^Stat5-CA cells
Test: pStat5 and proliferation of Ba/F3-IL7R^Stat5-CA cells with IL-7 or doxycycline
Type: cell-based, murine
Conditions: relative to data from day 0, reported as 1, groups +IL-7 -DOX or -IL-7 +DOX
Method: Ba/F3 cells (kindly provided by a person from The Walter and Eliza Hall Institute of Medical Research) were infected with pMIG-R1/Il7r retroviral supernatants produced in 293T cells, and transduced cells were sorted with a BD Influx (BD Australia) and selected by culture in medium supplemented with 5 ng/mL rmIL-7 (#217-17, Pepro Tech, Rocky Hill NJ, USA) for 7 days. Ba/F3 cells stably expressing Il7r (Ba/F3-IL7R) were infected with TxTCPVIR-Stat5-CA retroviral supernatants produced in 293T. Cell sorting was performed with a BD Influx and transduced cells were treated with doxycycline for 48 h to induce the expression of the Stat5-CA-T2A-mCherry fusion protein. […]
(red) assessed by flow cytometry (top) and Western blots (bottom). MFI ± SD of n=2 technical replicates, performed in 2 independent experiments (***P<0.001 compared to unstimulated cells ; white bar). For Western blots, Actin was used as a loading control. f, Proliferation of BaF3-IL7R Stat5-CA cells in absence (+IL-7 –DOX; grey) or presence (-IL-7 +DOX; red) of doxycycline. Fold expansion was calculated from the number of cells initially put into culture at day 0. […]

C[C@H]1c2cccc(O)c2C(=O)C2=C(O)[C@]3(O)C(=O)C(C(N)=O)=C(O)[C@@H](N(C)C)[C@@H]3[C@@H](O)[C@@H]21 [DOX]
Fold expansion (24 h): 0.89 and 0.85 and 0.86 and 0.90 and 0.74 and 0.77 | Fold expansion (48 h): 1.39 and 1.43 and 1.24 and 1.40 and 1.29 and 1.28 | Fold expansion (72 h): 2.22 and 2.26 and 3.46 and 3.54 and 3.68 and 3.14 | Fold expansion (96 h): 3.24 and 3.39 and 3.99 and 3.41 and 3.51 and 3.96 | Fold expansion (120 h): 10.84 and 12.62 and 8.80 and 9.76 and 7.34 and 8.20
